The record followed here is patent publication US20130236501A1, “Injectable Emulsion of Sedative Hypnotic Agent” (ASTRAZENECA AB, priority 2010, published 2013).

As usually defined, the solubility is the concentration that dissolves in the medium under given conditions. Low values mean little dissolved substance, high ones much dissolved substance.

This data set can be described thus: Water solubility of Compound A. The data set is classed as physicochemical. As for the experimental part:
Agents for sedation and anaesthesia are frequently administered by intravenous injection, a form of administration for which the agents need to be in a water-miscible form. Compound A, however, is an oleaginous compound with a water solubility of about 2 mg/ml. Such a compound is considered “slightly soluble” in the solubility definitions in General Notices 5.30 of the United States Pharmacopeia, USP33-NF28, published by the United States Pharmacopeial Convention Inc., Rockville, Md. In the case of Compound A, this solubility is not optimal for a therapeutically useful dose to be prepared simply by dissolution in water. The preparation of slightly soluble medicinal compounds for intravenous administration has been the subject of considerable investigation, but remains a significant challenge in the development of new therapeutic agents. Several drug delivery systems have been investigated for such compounds. In the present application, emulsions, in which droplets of oil, in which the drug is itself dissolved, are dispersed in an aqueous medium with the aid of an emulsifier and other suitable excipients and processing. A similar method is used for the commercial formulation of propofol, (2,6-diisopropyl-phenol), which is commercially available as Diprivan® Injectable Emulsion at concentrations of 1% and 2%. Oil-in-water emulsions comprising propofol are described in WO 96/29064.

Molecules are shown by their SMILES. In brackets after ≈: the same amount, converted by molar mass.

Regarding `CCCOC(=O)Cc1ccc(OCC(=O)N(CC)CC)c(OCC)c1` [Compound A, [3-ethoxy-4-[(N,N-diethylcarbamido)methoxy]phenyl]acetic acid n-propyl ester], the solubility was ~2000 µg/mL (≈ 5.69 mM).
